Measured values: US12583861B2, “Derivatives of imidazo[4,5-d]pyridazine, their preparation and their therapeutic application” (SANOFI, priority 2021, dated 2026)
pEC50: −log10 of the molar value. Structures can show the parent of a compound that is named as a salt.

Legend:
human TLR8 = biological target: T1, human TLR8 (Homo sapiens, UniProt Q9NR97); assay: HEK-Blue hTLR8 reporter cell assay (SEAP, NF-kB/AP-1) for stimulation of human TLR8; assay type: cell-based; settings: HEK-Blue hTLR8 cells; for activation at 20 µM: 24 h, at 20000 nM; for pEC50: 24 h incubation, SEAP readout, read-out: TLR8_EC50
T1 construct: host or cells: HEK293 (HEK-Blue hTLR8)
T1 sequence (Q9NR97 27-1041): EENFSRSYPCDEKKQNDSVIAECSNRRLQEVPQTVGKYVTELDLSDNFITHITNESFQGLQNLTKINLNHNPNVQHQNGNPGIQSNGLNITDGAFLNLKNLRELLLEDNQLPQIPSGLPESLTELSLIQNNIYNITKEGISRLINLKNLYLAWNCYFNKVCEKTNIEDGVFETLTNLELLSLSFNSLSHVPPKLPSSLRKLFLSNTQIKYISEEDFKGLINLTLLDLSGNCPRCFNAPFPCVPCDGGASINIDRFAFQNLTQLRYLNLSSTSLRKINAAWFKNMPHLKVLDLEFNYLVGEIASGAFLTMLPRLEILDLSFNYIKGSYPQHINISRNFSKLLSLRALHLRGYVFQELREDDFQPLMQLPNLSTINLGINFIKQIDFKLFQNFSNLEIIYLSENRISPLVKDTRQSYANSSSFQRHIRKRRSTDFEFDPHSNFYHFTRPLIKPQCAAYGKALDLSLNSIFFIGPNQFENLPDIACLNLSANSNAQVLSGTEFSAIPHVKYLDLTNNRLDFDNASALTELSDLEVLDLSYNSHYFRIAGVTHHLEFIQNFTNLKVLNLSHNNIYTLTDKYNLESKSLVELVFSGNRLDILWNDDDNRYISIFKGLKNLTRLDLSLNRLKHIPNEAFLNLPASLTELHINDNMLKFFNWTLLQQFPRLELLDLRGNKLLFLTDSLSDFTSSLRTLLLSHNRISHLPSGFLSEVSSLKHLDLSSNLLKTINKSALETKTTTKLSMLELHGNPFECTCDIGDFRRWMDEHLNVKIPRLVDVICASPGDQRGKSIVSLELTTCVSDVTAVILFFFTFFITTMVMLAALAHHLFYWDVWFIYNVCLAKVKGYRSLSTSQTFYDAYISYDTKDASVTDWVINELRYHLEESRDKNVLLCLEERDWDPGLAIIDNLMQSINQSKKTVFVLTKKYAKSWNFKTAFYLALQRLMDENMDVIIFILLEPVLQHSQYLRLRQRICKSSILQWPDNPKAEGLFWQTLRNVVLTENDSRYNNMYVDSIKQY
In short: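 Stimulation is quantified as secreted alkaline phosphatase in supernatant using QUANTI-Blue™ substrate. Reporter HEK293 line co-transfected with hTLR8 and SEAP under an IFN-β minimal promoter with five NF-κB/AP-1 sites; 3.10E4 cells/well, 18 to 24 h pre-culture at 37° C. before compounds.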

human TLR7 = biological target: T2, human TLR7 (Homo sapiens, UniProt Q9NYK1); assay: HEK-Blue hTLR7 reporter cell assay (SEAP, NF-kB/AP-1) for stimulation of human TLR7; assay type: cell-based; settings: HEK-Blue hTLR7 cells; for activation at 20 µM: 24 h, at 20000 nM; for pEC50: 24 h incubation, SEAP readout, read-out: TLR7_EC50
T2 construct: host or cells: HEK293 (HEK-Blue hTLR7)
T2 sequence (Q9NYK1 27-1049): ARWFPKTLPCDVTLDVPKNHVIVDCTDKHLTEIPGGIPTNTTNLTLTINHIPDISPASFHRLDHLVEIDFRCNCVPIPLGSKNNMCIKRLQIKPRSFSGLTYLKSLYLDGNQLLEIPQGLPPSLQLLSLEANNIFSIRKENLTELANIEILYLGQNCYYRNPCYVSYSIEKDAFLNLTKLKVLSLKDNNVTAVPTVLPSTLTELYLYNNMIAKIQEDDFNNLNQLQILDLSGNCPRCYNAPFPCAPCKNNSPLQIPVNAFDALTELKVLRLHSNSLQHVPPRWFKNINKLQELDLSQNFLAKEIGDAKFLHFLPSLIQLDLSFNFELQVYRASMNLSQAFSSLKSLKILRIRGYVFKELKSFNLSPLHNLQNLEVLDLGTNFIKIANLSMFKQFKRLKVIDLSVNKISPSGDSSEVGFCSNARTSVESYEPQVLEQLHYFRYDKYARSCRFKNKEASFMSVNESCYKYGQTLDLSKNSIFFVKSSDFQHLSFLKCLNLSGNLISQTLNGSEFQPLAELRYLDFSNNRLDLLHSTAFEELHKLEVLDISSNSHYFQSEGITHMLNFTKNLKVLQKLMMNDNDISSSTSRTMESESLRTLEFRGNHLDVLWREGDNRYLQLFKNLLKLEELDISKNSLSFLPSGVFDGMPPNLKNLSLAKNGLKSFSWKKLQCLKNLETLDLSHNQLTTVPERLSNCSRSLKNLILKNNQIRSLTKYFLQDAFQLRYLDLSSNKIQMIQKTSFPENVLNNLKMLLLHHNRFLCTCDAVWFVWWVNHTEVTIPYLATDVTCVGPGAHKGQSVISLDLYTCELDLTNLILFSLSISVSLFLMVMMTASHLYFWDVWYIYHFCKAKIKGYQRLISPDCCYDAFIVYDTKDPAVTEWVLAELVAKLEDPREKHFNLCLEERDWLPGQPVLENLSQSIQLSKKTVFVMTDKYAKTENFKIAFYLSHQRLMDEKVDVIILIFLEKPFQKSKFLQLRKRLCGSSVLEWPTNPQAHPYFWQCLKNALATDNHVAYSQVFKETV
In short: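 Activity expressed as EC50 for half-maximal SEAP induction. Compounds, serially diluted 3-fold from 20 to 0.01 μM, were incubated 24 h at 37 °C, 5% CO2 with HEK-Blue hTLR7 reporter cells (3.10E4/well, plated 18–24 h earlier); supernatant developed with QUANTI-Blue.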

| activation at 20 µM (human TLR8) [%] | activation at 20 µM (human TLR7) [%] | pEC50 (human TLR8) | pEC50 (human TLR7) | Compound |
| --- | --- | --- | --- | --- |
| 10.2 | 13.5 | – | – | CCCCc1nc2c(N)nnc(OC(C)C)c2n1Cc1ccc(CNCCOCCOCCOCCOCCOCCOCCOCCOCCOCCOCCOCCOC)cc1 [Compound 123, 2-butyl-4-isopropoxy-3-[[4-[[2-[2-[2-[2-[2-[2-[2-[2-[2-[2-[2-(2-methoxyethoxy)ethoxy]ethoxy]ethoxy]ethoxy]ethoxy]ethoxy]ethoxy]ethoxy]ethoxy]ethoxy]ethylamino]methyl]phenyl]methyl]imidazo[4,5-d]pyridazin-7-amine di2,2,2-trifluoroacetate] |
| – | – | 6.64 | 6.75 | CCCCc1nc2c(N)nnc(OC(C)C)c2n1Cc1cccc(CNC)c1 [Compound 124, 2-butyl-7-isopropoxy-1-(3-((methylamino)methyl)benzyl)-1H-imidazo[4,5-d]pyridazin-4-amine] |
| – | – | 6.94 | 6.41 | CCCCc1nc2c(N)nnc(OC(C)C)c2n1Cc1cccc(CN(C)C)c1 [Compound 125, 2-butyl-1-(3-((dimethylamino)methyl)benzyl)-7-isopropoxy-1H-imidazo[4,5-d]pyridazin-4-amine] |
| – | – | 6.42 | 6.91 | CCCCc1nc2c(N)nnc(OC(C)C)c2n1Cc1cccc(CNC2CCC2)c1 [Compound 126, 2-butyl-1-(3-((cyclobutylamino)methyl)benzyl)-7-isopropoxy-1H-imidazo[4,5-d]pyridazin-4-amine dihydrochloride salt] |
| – | – | 6.75 | 7.03 | CCCCc1nc2c(N)nnc(OC(C)C)c2n1Cc1cccc(CNC2CC2)c1 [Compound 127, 2-butyl-1-(3-((cyclopropylamino)methyl)benzyl)-7-isopropoxy-1H-imidazo[4,5-d]pyridazin-4-amine dihydrochloride salt] |
| – | – | < 4.70 | 5.22 | CCCCc1nc2c(N)nnc(OC(C)C)c2n1Cc1cccc(CNC(C)C)c1 [Compound 128, 2-butyl-7-isopropoxy-1-(3-((isopropylamino)methyl)benzyl)-1H-imidazo[4,5-d]pyridazin-4-amine dihydrochloride salt] |
| – | – | 5.20 | 5.81 | CCCCc1nc2c(N)nnc(OC(C)C)c2n1Cc1cccc(CNC2CS(=O)(=O)C2)c1 [Compound 129, 3-((3-((4-amino-2-butyl-7-isopropoxy-1H-imidazo[4,5-d]pyridazin-1-yl)methyl)benzyl)amino)thietane 1,1-dioxide] |
| – | – | 5.98 | 7.12 | CCCCc1nc2c(N)nnc(OC(C)C)c2n1Cc1cccc(CNC2(C)CCC2)c1 [Compound 130, 2-butyl-7-isopropoxy-1-(3-(((1-methylcyclobutyl)amino)methyl)benzyl)-1H-imidazo[4,5-d]pyridazin-4-amine dihydrochloride salt] |
| – | – | < 4.70 | 6.22 | CCCCc1nc2c(N)nnc(OC(C)C)c2n1Cc1cccc(CN2CCNCC2)c1 [Compound 131, 2-butyl-7-isopropoxy-1-(3-(piperazin-1-ylmethyl)benzyl)-1H-imidazo[4,5-d]pyridazin-4-amine] |
| – | – | < 4.73 | 6.53 | CCCCc1nc2c(N)nnc(/C=C/C(C)C)c2n1Cc1ccc(CN)cc1 [Compound 132, (E)-1-(4-(aminomethyl)benzyl)-2-butyl-7-(3-methylbut-1-en-1-yl)-1H-imidazo[4,5-d]pyridazin-4-amine] |
| – | – | < 4.72 | 6.84 | CCCCc1nc2c(N)nnc(CCC(C)C)c2n1Cc1ccc(CN)cc1 [Compound 133, 1-(4-(aminomethyl)benzyl)-2-butyl-7-isopentyl-1H-imidazo[4,5-d]pyridazin-4-amine] |
| – | – | < 4.70 | 6.56 | CCCCc1nc2c(N)nnc(N3CCCC3)c2n1Cc1ccc(CN)cc1 [Compound 134, 1-(4-(aminomethyl)benzyl)-2-butyl-7-(pyrrolidin-1-yl)-1H-imidazo[4,5-d]pyridazin-4-amine] |
| – | – | 6.60 | 6.87 | CCCCc1nc2c(N)nnc(-c3cc[nH]c3)c2n1Cc1ccc(CN)cc1 [Compound 135, 1-(4-(aminomethyl)benzyl)-2-butyl-7-(1H-pyrrol-3-yl)-1H-imidazo[4,5-d]pyridazin-4-amine 2,2,2-trifluoroacetate] |
| – | – | < 4.70 | 6.84 | CCCCc1nc2c(N)nnc(/C=C/C(C)C)c2n1C[C@H]1CC[C@H](CN)CC1 [Compound 137, 1-(((1R,4R)-4-(aminomethyl)cyclohexyl)methyl)-2-butyl-7-((E)-3-methylbut-1-en-1-yl)-1H-imidazo[4,5-d]pyridazin-4-amine] |
| – | – | < 4.70 | 7.29 | CCCCc1nc2c(N)nnc(CCC(C)C)c2n1C[C@H]1CC[C@H](CN)CC1 [Compound 138, 1-(((1R,4R)-4-(aminomethyl)cyclohexyl)methyl)-2-butyl-7-isopentyl-1H-imidazo[4,5-d]pyridazin-4-amine] |
| – | – | < 4.70 | 6.43 | CCCCc1nc2c(N)nnc(/C=C/C(C)C)c2n1C[C@H]1CC[C@H](N)CC1 [Compound 139, 1-(((1R,4R)-4-aminocyclohexyl)methyl)-2-butyl-7-((E)-3-methylbut-1-en-1-yl)-1H-imidazo[4,5-d]pyridazin-4-amine] |
| – | – | < 4.70 | 5.88 | CCCCc1nc2c(N)nnc(CCC(C)C)c2n1C[C@H]1CC[C@H](N)CC1 [Compound 140, 1-(((1R,4R)-4-aminocyclohexyl)methyl)-2-butyl-7-isopentyl-1H-imidazo[4,5-d]pyridazin-4-amine] |
| 19.6 | 26.8 | – | – | CCCCc1nc2c(N)nnc(-c3cc[nH]c3)c2n1C[C@H]1CC[C@H](N)CC1 [Compound 141, 1-(((1R,4R)-4-aminocyclohexyl)methyl)-2-butyl-7-(1H-pyrrol-3-yl)-1H-imidazo[4,5-d]pyridazin-4-amine] |
| – | – | < 4.70 | 5.58 | CCCCc1nc2c(N)nnc(N3CCCC3)c2n1C[C@H]1CC[C@H](CN)CC1 [Compound 142, 1-(((1R,4R)-4-(aminomethyl)cyclohexyl)methyl)-2-butyl-7-(pyrrolidin-1-yl)-1H-imidazo[4,5-d]pyridazin-4-amine] |
| – | – | < 4.70 | 4.96 | CCCCc1nc2c(N)nnc(N3CCCC3)c2n1C[C@H]1CC[C@H](N)CC1 [Compound 143, 3-[(4-aminocyclohexyl)methyl]-2-butyl-4-pyrrolidin-1-yl-imidazo[4,5-d]pyridazin-7-amine] |
